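1) Cells in 96-well plates. 2) Compound, 48 h, 5 concentrations. 3) Linear interpolation between surrounding doses. 4) Unreached endpoint = highest concentration. Definition used: TGI = concentration required for complete inhibition of growth.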
Key:
Assay in all cases: NCI tumour cell line growth inhibition, 48 h
RXF 393 renal = system: RXF 393 renal
SNB-19 CNS = system: SNB-19 CNS
SF-268 CNS = system: SF-268 CNS
RPMI-8226 leukemia = system: RPMI-8226 leukemia
OVCAR-5 ovarian = system: OVCAR-5 ovarian
NCI-H522 lung = system: NCI-H522 lung
NCI-H23 lung = system: NCI-H23 lung
UO-31 renal = system: UO-31 renal
SF-295 CNS = system: SF-295 CNS
SK-MEL-5 melanoma = system: SK-MEL-5 melanoma
MALME-3M melanoma = system: MALME-3M melanoma
DMS 114 small cell lung = system: DMS 114 small cell lung
SW-620 colon = system: SW-620 colon
EKVX NSCLC = system: EKVX NSCLC
HT29 colon = system: HT29 colon
OVCAR-4 ovarian = system: OVCAR-4 ovarian
NCI-H460 lung = system: NCI-H460 lung
KM20L2 colon = system: KM20L2 colon
MOLT-4 leukemia = system: MOLT-4 leukemia
M19-MEL melanoma = system: M19-MEL melanoma
KM12 colon = system: KM12 colon
CAKI-1 renal = system: CAKI-1 renal
HCT-15 colon = system: HCT-15 colon
UACC-62 melanoma = system: UACC-62 melanoma
SF-539 CNS = system: SF-539 CNS
K-562 leukemia = system: K-562 leukemia
U251 CNS = system: U251 CNS
HOP-92 NSCLC = system: HOP-92 NSCLC
IGROV1 ovarian = system: IGROV1 ovarian
HOP-62 NSCLC = system: HOP-62 NSCLC
RXF-631 renal = system: RXF-631 renal
HL-60(TB) leukemia = system: HL-60(TB) leukemia
ACHN renal = system: ACHN renal
COLO 205 colon = system: COLO 205 colon
HOP-18 NSCLC = system: HOP-18 NSCLC
M14 melanoma = system: M14 melanoma
A498 renal = system: A498 renal
DLD-1 colon = system: DLD-1 colon
XF 498 CNS = system: XF 498 CNS
LXFL 529 NSCLC = system: LXFL 529 NSCLC
786-0 renal = system: 786-0 renal
SN12C renal = system: SN12C renal
HCC-2998 colon = system: HCC-2998 colon
SK-OV-3 ovarian = system: SK-OV-3 ovarian
A549 NSCLC = system: A549 NSCLC
SK-MEL-2 melanoma = system: SK-MEL-2 melanoma
LOX IMVI melanoma = system: LOX IMVI melanoma
SR leukemia = system: SR leukemia
NCI-H226 lung = system: NCI-H226 lung
DMS 273 small cell lung = system: DMS 273 small cell lung
SNB-78 CNS = system: SNB-78 CNS
SNB-75 CNS = system: SNB-75 CNS
CCRF-CEM leukemia = system: CCRF-CEM leukemia
UACC-257 melanoma = system: UACC-257 melanoma
HCT-116 colon = system: HCT-116 colon
SK-MEL-28 melanoma = system: SK-MEL-28 melanoma
TK-10 renal = system: TK-10 renal
OVCAR-8 ovarian = system: OVCAR-8 ovarian

Which results are given for `CC(=O)Oc1ccccc1C(=O)C1c2cccc(O)c2C(=O)c2c(O)cccc21`?
TGI (RXF 393 renal): 1.46 µM; TGI (SNB-19 CNS): 24.3 µM; TGI (SF-268 CNS): 5.54 µM; TGI (RPMI-8226 leukemia): 2.48 µM; TGI (OVCAR-5 ovarian): 6.22 µM; TGI (NCI-H522 lung): 3.88 µM; TGI (NCI-H23 lung): 4.33 µM; TGI (UO-31 renal): 1.68 µM; TGI (SF-295 CNS): 2.65 µM; TGI (SK-MEL-5 melanoma): 2.4 µM; TGI (MALME-3M melanoma): 4.01 µM; TGI (DMS 114 small cell lung): 1.28 µM; TGI (SW-620 colon): 2.26 µM; TGI (EKVX NSCLC): 6.15 µM; TGI (HT29 colon): 6.59 µM; TGI (OVCAR-4 ovarian): 4.48 µM; TGI (NCI-H460 lung): 2.1 µM; TGI (KM20L2 colon): 5.57 µM; TGI (MOLT-4 leukemia): 6.01 µM; TGI (M19-MEL melanoma): 2.94 µM; TGI (KM12 colon): 1.59 µM; TGI (CAKI-1 renal): 5.39 µM; TGI (HCT-15 colon): 9.56 µM; TGI (UACC-62 melanoma): 2.23 µM; TGI (SF-539 CNS): 1.94 µM; TGI (K-562 leukemia): > 100 µM; TGI (U251 CNS): 1.99 µM; TGI (HOP-92 NSCLC): 3.76 µM; TGI (IGROV1 ovarian): 2.85 µM; TGI (HOP-62 NSCLC): 3.4 µM; TGI (RXF-631 renal): 11.1 µM; TGI (HL-60(TB) leukemia): 0.727 µM; TGI (ACHN renal): 3.45 µM; TGI (COLO 205 colon): 1.86 µM; TGI (HOP-18 NSCLC): 4.87 µM; TGI (M14 melanoma): 5.16 µM; TGI (A498 renal): 7.1 µM; TGI (DLD-1 colon): 12.2 µM; TGI (XF 498 CNS): 0.506 µM; TGI (LXFL 529 NSCLC): 4.03 µM; TGI (786-0 renal): 3.98 µM; TGI (SN12C renal): 12.1 µM; TGI (HCC-2998 colon): 6.5 µM; TGI (SK-OV-3 ovarian): 1.68 µM; TGI (A549 NSCLC): 2.86 µM; TGI (SK-MEL-2 melanoma): 2.9 µM; TGI (LOX IMVI melanoma): 4.19 µM; TGI (SR leukemia): 0.967 µM; TGI (NCI-H226 lung): 3.7 µM; TGI (DMS 273 small cell lung): 3.8 µM; TGI (SNB-78 CNS): > 24.8 µM; TGI (SNB-75 CNS): 4.54 µM; TGI (CCRF-CEM leukemia): 2.77 µM; TGI (UACC-257 melanoma): 3.76 µM; TGI (HCT-116 colon): 3.41 µM; TGI (SK-MEL-28 melanoma): 7.14 µM; TGI (TK-10 renal): 15.4 µM; TGI (OVCAR-8 ovarian): 4.34 µM

Which results are given for `COc1ccc2cc3n(c2c1)CCc1cc(OC)c(OC)cc1-3`?
TGI (RXF 393 renal): > 100 µM; TGI (SNB-19 CNS): > 100 µM; TGI (SF-268 CNS): > 100 µM; TGI (NCI-H522 lung): > 100 µM; TGI (NCI-H23 lung): > 100 µM; TGI (UO-31 renal): > 100 µM; TGI (SF-295 CNS): > 100 µM; TGI (DMS 114 small cell lung): > 100 µM; TGI (SW-620 colon): > 100 µM; TGI (EKVX NSCLC): > 100 µM; TGI (HT29 colon): > 100 µM; TGI (OVCAR-4 ovarian): > 100 µM; TGI (NCI-H460 lung): > 100 µM; TGI (KM20L2 colon): > 100 µM; TGI (MOLT-4 leukemia): > 100 µM; TGI (M19-MEL melanoma): > 100 µM; TGI (KM12 colon): > 100 µM; TGI (CAKI-1 renal): > 100 µM; TGI (UACC-62 melanoma): > 100 µM; TGI (SF-539 CNS): > 100 µM; TGI (K-562 leukemia): > 100 µM; TGI (U251 CNS): > 100 µM; TGI (HOP-92 NSCLC): > 100 µM; TGI (IGROV1 ovarian): > 100 µM; TGI (HOP-62 NSCLC): > 100 µM; TGI (RXF-631 renal): > 100 µM; TGI (HL-60(TB) leukemia): > 100 µM; TGI (ACHN renal): > 100 µM; TGI (COLO 205 colon): > 100 µM; TGI (HOP-18 NSCLC): > 100 µM; TGI (A498 renal): > 100 µM; TGI (DLD-1 colon): > 100 µM; TGI (XF 498 CNS): > 100 µM; TGI (LXFL 529 NSCLC): > 100 µM; TGI (786-0 renal): > 100 µM; TGI (SN12C renal): > 100 µM; TGI (HCC-2998 colon): > 100 µM; TGI (SK-OV-3 ovarian): > 100 µM; TGI (A549 NSCLC): > 100 µM; TGI (SK-MEL-2 melanoma): > 100 µM; TGI (LOX IMVI melanoma): > 100 µM; TGI (NCI-H226 lung): > 100 µM; TGI (DMS 273 small cell lung): > 100 µM; TGI (SNB-78 CNS): > 100 µM; TGI (CCRF-CEM leukemia): > 100 µM; TGI (UACC-257 melanoma): > 100 µM; TGI (SK-MEL-28 melanoma): > 100 µM; TGI (TK-10 renal): > 100 µM; TGI (OVCAR-8 ovarian): > 100 µM

Source: PubChem BioAssay (NCI)
